Where “and” joins values, the source holds several entries; their conditions need not be identical. Identical values can stand only once.
Experiments:
[1] = Stability of treated (extracted) human plasma samples of AST-2660 at 4° C. (LC-MS/MS); type: physicochemical; conditions: stored for 54 hours at 4° C.
Description: (§1) The detection method established in example 4 was used to detect the content of AST-2660 in the human plasma to be tested.
Matrix: the mixed normal human plasma containing anticoagulant (K2 EDTA) • a: the internal standard working solution: AST-2660-D8 was taken, added with methanol, and diluted to prepare a solution containing about 100 ng per 1 ml. • b: the solution to be tested (no internal standard compound was added to the solution to be tested at this time): it was obtained by taking a blood sample to be tested. • c: the standard working solution (no internal standard compound was added to the standard working solution at this time): an appropriate amount of AST-2660 was taken and accurately weighed, dissolved with methanol, and diluted to prepare a solution containing about 1.0 mg per 1 ml, which was used as the standard working stock solution. […]
(§2) Calculation results: the relationship function y=f (x) of the ratio of the peak area of the AST-2660 to that of the internal standard was obtained from AST-2660 standard working solutions with different concentrations. The ratio of the peak area of the AST-2660 to that of the internal standard was determined from the solution to be tested after extraction, and substituted into the relationship function y=f (x) to calculate the concentration of the metabolite II in the solution to be tested.

[2] = Experimental table stability of AST-2660 in human plasma at room temperature (LC-MS/MS); type: in vitro ADME; conditions: for AST-2660 concentration, Mean value / AST-2660 concentration, single replicates / RE (%) vs nominal: human plasma, room temperature
Description: as §1
Matrix: the mixed normal human plasma containing anticoagulant (K2 EDTA) • a: the internal standard working solution: AST-2660-D8 was taken, added with methanol, and diluted to prepare a solution containing about 100 ng per 1 ml. • b: the solution to be tested (no internal standard compound was added to the solution to be tested at this time): it was obtained by taking a blood sample to be tested. • c: the standard working solution (no internal standard compound was added to the standard working solution at this time): an appropriate amount of AST-2660 was taken and accurately weighed, dissolved with methanol, and diluted to prepare a solution containing about 1.0 mg per 1 ml, which was used as the standard working stock solution. An appropriate amount of the standard working stock solution was taken, added with the matrix and diluted to prepare standard working solutions with different concentrations containing about 200 ng, 160 ng, 100 ng, 50 ng, 10 ng, 2.0 ng, 1.0 ng and 0.5 ng per 1 ml, respectively. (The solution was stored at −70° C.) • d: the quality control sample solution: an appropriate amount of AST-2660 was taken and accurately weighed, dissolved with methanol, and diluted to prepare a solution containing about 10 μg per 1 ml, which was used as the quality control working stock solution. An appropriate amount of the quality control working stock solution was taken, added with matrix to prepare quality control working solutions with different concentrations containing about 150 ng, 60 ng, 15 ng, 1.5 ng and 0.5 ng per 1 ml. (The solution was stored at −70° C.)
The solution to be tested, the standard working solution and the quality control sample solution were thawed at room temperature and mixed uniformly. 100 μl of the above solution was respectively taken, added with 20 μl of the internal standard and 500 μl of methanol, and vortexed for 3 minutes to mix uniformly, and then centrifuged for 10 minutes at 2143 rcf. 450 μl of the supernatant was taken and dried, and 150 μl of methanol was added for redissolution, and sonicated. Then the plates were centrifuged for 3 minutes at 4° C. It was obtained by taking […] of supernatant.
Liquid phase conditions: A SHARC 1, 3 μm, 2.1*50 mm or chromatograph column with equivalent performance was used; the mobile phase was a methanol solution comprising low content of ammonium acetate; the mobile phase B was acetonitrile; the gradient elution was performed according to the following table, column temperature: 20° C.; injection volume: 5 μl.
Mass spectrometric conditions: electrospray ion source with negative ion scanning mode; spray potential: −4500 V; ion source temperature: 500° C.; collision energy (CE): −22 eV; declustering potential (DP): −55V; entrance potential (EP): −10V; collision chamber exit potential (CXP): −16V; dwell time: 100 ms; high purity nitrogen was used for all gases; AST-2660 ions pairs: m/z 147.0→m/z 62.9; the internal standard AST-2660-D8 ion pairs: m/z 155.0→m/z 62.9.
The AST-2660 standard working solution, blank sample, zero concentration sample, sample solution to be tested and quality control sample solution with different concentrations after extraction were respectively taken and injected into LC-MS/MS for detection.
as §2

[3] = DilQC (10-fold dilution) nominal 1500 ng/ml, 0 hour
[4] = DilQC (10-fold dilution) nominal 1500 ng/ml, 4 hours
[5] = DilQC (10-fold dilution) nominal 1500 ng/ml, 24 hours
[6] = QC1 nominal 1.50 ng/ml, 4 hours
[7] = QC1 nominal 1.50 ng/ml, 24 hours
[8] = QC4 nominal 150 ng/ml, 24 hours

Structure (SMILES): O=P([O-])(N1CC1)N1CC1.[Na+] [AST-2660]
- stability of content (in words) [1]: stable
- stability (in words) ([2]; human plasma samples at room temperature): not stable
- AST-2660 concentration, Mean value [2, 3]: 1680 ng/mL
- AST-2660 concentration, single replicates [2, 3]: 1610 ng/mL and 1770 ng/mL and 1700 ng/mL and 1640 ng/mL
- RE (%) vs nominal [2, 3]: 12.0%
- AST-2660 concentration, Mean value [2, 4]: 1593 ng/mL
- AST-2660 concentration, single replicates [2, 4]: 1500 ng/mL and 1710 ng/mL and 1600 ng/mL and 1560 ng/mL
- RE (%) vs nominal [2, 4]: 6.2%
- AST-2660 concentration, Mean value [2, 5]: 1455 ng/mL
- AST-2660 concentration, single replicates [2, 5]: 1380 ng/mL and 1500 ng/mL and 1480 ng/mL and 1460 ng/mL
- RE (%) vs nominal [2, 5]: −3.0%
- AST-2660 concentration, Mean value ([2]; QC1 nominal 1.50 ng/ml, 0 hour): 1.42 ng/mL
- AST-2660 concentration, single replicates ([2]; QC1 nominal 1.50 ng/ml, 0 hour): 1.44 ng/mL and 1.32 ng/mL and 1.38 ng/mL and 1.55 ng/mL
- RE (%) vs nominal ([2]; QC1 nominal 1.50 ng/ml, 0 hour): −5.2%
- AST-2660 concentration, Mean value [2, 6]: 1.35 ng/mL
- AST-2660 concentration, single replicates [2, 6]: 1.34 ng/ml (2×) and 1.31 ng/ml and 1.42 ng/ml
- RE (%) vs nominal [2, 6]: −9.8%
- AST-2660 concentration, Mean value [2, 7]: 1.32 ng/mL
- AST-2660 concentration, single replicates [2, 7]: 1.33 ng/mL and 1.28 ng/mL and 1.38 ng/mL and 1.27 ng/mL
- RE (%) vs nominal [2, 7]: −12.3%
- AST-2660 concentration, Mean value ([2]; QC4 nominal 150 ng/ml, 0 hour): 136 ng/mL
- AST-2660 concentration, single replicates ([2]; QC4 nominal 150 ng/ml, 0 hour): 130 ng/mL and 142 ng/mL and 135 ng/mL and 137 ng/mL
- RE (%) vs nominal ([2]; QC4 nominal 150 ng/ml, 0 hour): −9.3%
- AST-2660 concentration, Mean value ([2]; QC4 nominal 150 ng/ml, 4 hours): 138 ng/mL
- AST-2660 concentration, single replicates ([2]; QC4 nominal 150 ng/ml, 4 hours): 130 ng/mL and 141 ng/mL and 136 ng/mL and 145 ng/mL
- RE (%) vs nominal ([2]; QC4 nominal 150 ng/ml, 4 hours): −8.0%
- AST-2660 concentration, Mean value [2, 8]: 125 ng/mL
- AST-2660 concentration, single replicates [2, 8]: 117 ng/mL and 128 ng/mL and 124 ng/mL and 129 ng/mL
- RE (%) vs nominal [2, 8]: −17.0%
